Measured values from BindingDB's records for doi:10.1021/acsmedchemlett.9b00051 (Ajinomoto, 2019).

experiment: Positive allosteric modulator activity at human T1R2/T1R3 expressed in PEAKrapid cells assessed as potentiation of sucrose-induced intracellular calcium influx by measuring sucrose EC50 at 30 uM measured for 120 secs by fluorescence based assay (Rvb = 31.7 mM)

| EC50 [mM] | SMILES |
| --- | --- |
| 24.5 | CC(C)(C)OC(=O)NCc1ccc(-c2cncc(C(=O)O)c2N)o1 |
| 14.6 | CC(C)[C@H](N)C(=O)NCc1ccc(-c2cncc(C(=O)O)c2N)o1 |
| 22.1 | CC(C)C(=O)NCc1ccc(-c2cncc(C(=O)O)c2N)o1 |
| 21.6 | CC(C)CNC(=O)NCc1ccc(-c2cncc(C(=O)O)c2N)o1 |
| 22.7 | CC(C)C[C@@H](CC(=O)Nc1cncc(C(=O)O)c1N)NC(=O)[C@@H](N)C1CCCCC1 |
| 5.8 | Nc1c(C(=O)O)cncc1-c1ccc(CNC(=O)[C@@H](N)C2CCCCC2)o1 |
| 18.4 | CC(C)[C@@H](CC(=O)Nc1cncc(C(=O)O)c1N)NC(=O)[C@@H](N)C1CCCCC1 |
| 15.9 | Cc1nc2ccccc2c(N)c1C(=O)O |
| 2.2 | CC(C)(CC(=O)Nc1cncc(C(=O)O)c1N)NC(=O)[C@@H](N)C1CCCCC1 |
| 27.1 | CC(=O)NCc1ccc(-c2cncc(C(=O)O)c2N)o1 |
| 10.2 | C[C@@H](CC(=O)Nc1cncc(C(=O)O)c1N)NC(=O)[C@@H](N)C1CCCCC1 |
| 16.2 | Nc1c(NC(=O)CCCNC(=O)[C@@H](N)C2CCCCC2)cncc1C(=O)O |
| 18.3 | CC(C)CC(=O)NCc1ccc(-c2cncc(C(=O)O)c2N)o1 |
| 20.2 | Nc1c(NC(=O)CCCCCCNC(=O)[C@@H](N)C2CCCCC2)cncc1C(=O)O |
| 0.6 | Cc1nc2cccc(OCC(C)(C)C(=O)NC(C)C)c2c(N)c1C(=O)O |
| 26.5 | CC(C)CNC(=O)C(=O)NCc1ccc(-c2cncc(C(=O)O)c2N)o1 |
| 8.9 | CC[C@H](C)[C@@H](CCC(=O)Nc1cncc(C(=O)O)c1N)NC(=O)[C@@H](N)C1CCCCC1 |
| 8.5 | Nc1c(NC(=O)CC[C@H](Cc2ccccc2)NC(=O)[C@@H](N)C2CCCCC2)cncc1C(=O)O |
| 7.8 | Nc1c(NC(=O)CCCCNC(=O)[C@@H](N)C2CCCCC2)cncc1C(=O)O |
| 10.5 | CC(C)[C@@H](CCC(=O)Nc1cncc(C(=O)O)c1N)NC(=O)[C@@H](N)C1CCCCC1 |
| 10 | CC[C@H](C)[C@H](N)C(=O)NCc1ccc(-c2cncc(C(=O)O)c2N)o1 |
| 11.1 | CC(C)C[C@H](N)C(=O)NCc1ccc(-c2cncc(C(=O)O)c2N)o1 |

experiment: Positive allosteric modulator activity at human T1R2/T1R3 expressed in PEAKrapid cells assessed as potentiation of sucrose-induced intracellular calcium influx by measuring sucrose EC50 at 50 uM measured for 120 secs by fluorescence based assay (Rvb = 31.7 mM)

| EC50 [mM] | SMILES |
| --- | --- |
| 21 | Nc1c(C(=O)O)cncc1-c1cccs1 |
| 21.5 | Nc1c(C(=O)O)cncc1-c1ccccc1 |
| 16.8 | Nc1c(C(=O)O)cncc1-c1ccco1 |
